Measured values published in US20070173529A1, “Sulfated bis-cyclic agents” (priority 2003, published 2007).

How the values were obtained:
[1] = tested on: T1, human plasma factor Xa (Homo sapiens); assay: Antithrombin-dependent factor Xa inhibition (residual factor Xa activity, Spectrozyme fXa substrate); format: biochemical; conditions: 10 μM sulfated compound; 1 μM human plasma antithrombin, 10 nM human plasma factor Xa, pH 6.0, 25° C., 10 min
T1 construct: 10 nM human plasma factor Xa; from tissue; host or cells: human plasma
Procedure: (§1) Methods. To assay anticoagulant activity, compounds were incubated with 1 μM human plasma antithrombin and 10 nM human plasma factor Xa in 20 mM sodium phosphate buffer, pH 6.0, at 25° C. for 10 min. After incubation, residual factor Xa activity was measured spectrophotometrically using Spectrozyme fXa substrate. From the decrease in residual factor Xa activity as a function of sulfated bis-cyclic agent concentration, the anticoagulant potential of each sample was calculated.
(§2) A key test of in vitro anticoagulant activity is the inhibition of Factor Xa., a critical enzyme involved in blood clotting.
(§3) Each peak was isolated and its factor Xa inhibition potential was determined at concentrations in the range of 1-50 μM.

human plasma factor Xa = target: T2, human plasma factor Xa (Homo sapiens, UniProt P01008); assay: as above; format: biochemical; conditions: tested at 1-50 μM
T2 construct: 10 nM human plasma factor Xa; from tissue; host or cells: human plasma
Procedure: as §1, §2, §3

T1 sequence (P01008 33-464): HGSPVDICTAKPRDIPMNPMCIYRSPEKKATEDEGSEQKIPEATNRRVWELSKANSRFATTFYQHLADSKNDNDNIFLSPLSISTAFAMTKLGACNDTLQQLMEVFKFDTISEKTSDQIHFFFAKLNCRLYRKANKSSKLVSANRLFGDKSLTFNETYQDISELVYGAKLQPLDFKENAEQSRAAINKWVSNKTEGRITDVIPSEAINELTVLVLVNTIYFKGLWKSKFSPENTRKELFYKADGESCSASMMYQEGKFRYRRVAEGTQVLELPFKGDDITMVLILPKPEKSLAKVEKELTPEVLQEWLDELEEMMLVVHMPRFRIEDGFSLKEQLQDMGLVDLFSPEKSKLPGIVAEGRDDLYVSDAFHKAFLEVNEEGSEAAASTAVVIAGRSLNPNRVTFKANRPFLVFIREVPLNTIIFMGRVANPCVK
T2 sequence (P01008 33-464): as above

Substance: (3S)-6,7-bis-sulfonato-2-(3,4,5-tris-sulfonato-benzoyl)-1,2,3,4-tetrahydro-isoquinoline-3-carboxylate [Peak P1]
- Inhibition (Factor Xa inhibition by sulfated compounds) [1]: 86%
- acceleration of the inhibition of human factor Xa by human plasma antithrombin (human plasma factor Xa): greatly accelerates the inhibition
